Assay results taken from ChEMBL document CHEMBL2413016, “Synthesis and in vivo evaluation of [(18)F]2-(4-(4-(2-(2-fluoroethoxy)phenyl)piperazin-1-yl)butyl)-4-methyl-1,2,4-triazine-3,5(2H,4H)-dione ([(18)F]FECUMI-101) as an imaging probe for 5-HT1A receptor agonist in nonhuman primates” (Bioorg Med Chem, 2013).

How the values were obtained:
[1] = molecular target: 5-hydroxytryptamine receptor 7 (Homo sapiens, UniProt P34969); test: Binding affinity to 5HT7 receptor (unknown origin)
D(2) dopamine receptor = D(2) dopamine receptor (Homo sapiens, UniProt P14416); test: Binding affinity to dopamine 2 receptor (unknown origin)
Chain of D(2) dopamine receptor (P14416 whole entry): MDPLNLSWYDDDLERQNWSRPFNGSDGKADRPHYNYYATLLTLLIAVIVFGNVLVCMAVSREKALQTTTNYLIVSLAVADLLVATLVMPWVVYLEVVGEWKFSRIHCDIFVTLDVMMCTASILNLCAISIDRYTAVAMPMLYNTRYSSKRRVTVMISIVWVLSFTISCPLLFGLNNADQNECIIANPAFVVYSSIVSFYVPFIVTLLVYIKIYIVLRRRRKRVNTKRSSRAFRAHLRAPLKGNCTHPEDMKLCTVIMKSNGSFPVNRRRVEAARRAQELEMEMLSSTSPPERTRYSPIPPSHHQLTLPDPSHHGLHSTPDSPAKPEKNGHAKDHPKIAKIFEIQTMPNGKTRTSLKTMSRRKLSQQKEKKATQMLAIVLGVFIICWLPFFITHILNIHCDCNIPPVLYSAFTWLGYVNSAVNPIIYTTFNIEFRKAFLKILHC

[2] = molecular target: Alpha-2B adrenergic receptor (Homo sapiens, UniProt P18089); test: Binding affinity to adrenergic alpha2B receptor (unknown origin)
Chain of Alpha-2B adrenergic receptor (P18089 whole entry): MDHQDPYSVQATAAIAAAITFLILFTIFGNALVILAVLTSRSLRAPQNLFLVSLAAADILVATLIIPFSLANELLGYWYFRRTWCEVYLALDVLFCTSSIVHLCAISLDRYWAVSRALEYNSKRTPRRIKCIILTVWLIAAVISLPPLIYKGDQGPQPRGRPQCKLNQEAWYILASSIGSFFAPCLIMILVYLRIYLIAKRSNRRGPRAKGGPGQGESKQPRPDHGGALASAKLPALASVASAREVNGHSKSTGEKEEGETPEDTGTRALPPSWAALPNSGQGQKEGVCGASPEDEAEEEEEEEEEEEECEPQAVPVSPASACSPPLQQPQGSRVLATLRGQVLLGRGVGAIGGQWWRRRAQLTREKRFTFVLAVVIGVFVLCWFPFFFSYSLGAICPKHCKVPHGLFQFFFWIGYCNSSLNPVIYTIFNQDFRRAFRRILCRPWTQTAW

[3] = molecular target: Alpha-2A adrenergic receptor (Homo sapiens, UniProt P08913); test: Binding affinity to adrenergic alpha2A receptor (unknown origin)
Chain of Alpha-2A adrenergic receptor (P08913 whole entry): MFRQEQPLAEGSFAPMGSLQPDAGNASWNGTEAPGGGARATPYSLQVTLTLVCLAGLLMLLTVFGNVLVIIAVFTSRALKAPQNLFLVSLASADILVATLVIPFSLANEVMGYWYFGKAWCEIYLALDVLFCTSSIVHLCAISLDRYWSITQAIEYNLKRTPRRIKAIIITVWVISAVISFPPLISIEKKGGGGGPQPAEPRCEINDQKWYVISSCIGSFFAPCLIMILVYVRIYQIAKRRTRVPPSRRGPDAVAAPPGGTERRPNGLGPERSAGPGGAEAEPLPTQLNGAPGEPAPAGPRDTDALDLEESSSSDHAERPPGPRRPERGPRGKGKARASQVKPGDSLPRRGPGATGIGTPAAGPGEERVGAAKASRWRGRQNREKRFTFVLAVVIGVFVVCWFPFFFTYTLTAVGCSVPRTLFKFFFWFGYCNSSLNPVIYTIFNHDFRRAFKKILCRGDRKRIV

[4] = molecular target: Alpha-1A adrenergic receptor (Homo sapiens, UniProt P35348); test: Binding affinity to adrenergic alpha1A receptor (unknown origin)
Chain of Alpha-1A adrenergic receptor (P35348 whole entry): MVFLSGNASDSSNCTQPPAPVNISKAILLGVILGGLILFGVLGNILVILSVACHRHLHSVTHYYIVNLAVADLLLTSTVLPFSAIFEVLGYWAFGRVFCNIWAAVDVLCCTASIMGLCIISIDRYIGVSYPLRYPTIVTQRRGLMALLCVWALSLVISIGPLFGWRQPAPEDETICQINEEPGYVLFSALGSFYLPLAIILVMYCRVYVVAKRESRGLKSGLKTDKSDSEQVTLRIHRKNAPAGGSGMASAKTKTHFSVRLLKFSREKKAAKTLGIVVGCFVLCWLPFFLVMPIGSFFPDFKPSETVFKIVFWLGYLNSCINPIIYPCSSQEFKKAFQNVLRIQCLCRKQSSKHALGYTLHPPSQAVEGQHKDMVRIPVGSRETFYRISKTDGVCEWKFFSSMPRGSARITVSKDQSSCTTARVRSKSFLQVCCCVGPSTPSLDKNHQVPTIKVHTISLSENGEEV

[5] = molecular target: 5-hydroxytryptamine receptor 1B (Homo sapiens, UniProt P28222); test: Binding affinity to 5HT1B receptor (unknown origin)
[6] = molecular target: 5-hydroxytryptamine receptor 2B (Homo sapiens, UniProt P41595); test: Binding affinity to 5HT2B receptor (unknown origin)
Histamine H1 receptor = Histamine H1 receptor (Homo sapiens, UniProt P35367); test: Binding affinity to histamine H1 receptor (unknown origin)
[7] = molecular target: 5-hydroxytryptamine receptor 2A (Homo sapiens, UniProt P28223); test: Binding affinity to 5HT2A receptor (unknown origin)
Chain of 5-hydroxytryptamine receptor 2A (P28223 whole entry): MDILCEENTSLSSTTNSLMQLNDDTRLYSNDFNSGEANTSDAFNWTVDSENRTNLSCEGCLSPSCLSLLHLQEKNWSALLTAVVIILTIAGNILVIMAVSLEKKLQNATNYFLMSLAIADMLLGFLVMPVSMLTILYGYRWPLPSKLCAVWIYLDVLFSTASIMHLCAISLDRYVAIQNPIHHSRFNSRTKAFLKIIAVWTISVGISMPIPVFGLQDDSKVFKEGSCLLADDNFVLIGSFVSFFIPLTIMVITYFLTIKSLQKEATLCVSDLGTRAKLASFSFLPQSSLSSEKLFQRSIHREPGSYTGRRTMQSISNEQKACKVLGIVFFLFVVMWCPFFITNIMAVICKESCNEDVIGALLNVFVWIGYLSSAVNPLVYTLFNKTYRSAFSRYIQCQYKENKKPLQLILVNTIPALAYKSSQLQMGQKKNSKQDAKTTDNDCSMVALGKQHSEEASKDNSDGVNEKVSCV

Histamine H2 receptor = Histamine H2 receptor (Homo sapiens, UniProt P25021); test: Binding affinity to histamine H2 receptor (unknown origin)
[8] = Binding affinity to sigma 2 receptor (unknown origin); parameters: species or system Homo sapiens
[9] = molecular target: 5-hydroxytryptamine receptor 5A (Homo sapiens, UniProt P47898); test: Binding affinity to 5HT5A receptor (unknown origin)
Chain of 5-hydroxytryptamine receptor 5A (P47898 whole entry): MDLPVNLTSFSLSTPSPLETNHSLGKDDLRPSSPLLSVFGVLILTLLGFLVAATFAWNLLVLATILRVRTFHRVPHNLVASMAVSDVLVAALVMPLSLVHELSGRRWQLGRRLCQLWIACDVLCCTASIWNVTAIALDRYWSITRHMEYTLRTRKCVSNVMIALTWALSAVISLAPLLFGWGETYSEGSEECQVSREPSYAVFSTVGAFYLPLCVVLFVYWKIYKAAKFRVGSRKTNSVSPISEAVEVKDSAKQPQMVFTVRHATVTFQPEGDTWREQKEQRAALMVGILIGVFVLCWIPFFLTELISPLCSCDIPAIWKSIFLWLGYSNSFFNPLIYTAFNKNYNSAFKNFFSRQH

D(1A) dopamine receptor = D(1A) dopamine receptor (Homo sapiens, UniProt P21728); test: Binding affinity to dopamine 1 receptor (unknown origin)
D(4) dopamine receptor = D(4) dopamine receptor (Homo sapiens, UniProt P21917); test: Binding affinity to dopamine 4 receptor (unknown origin)
[10] = molecular target: T1, 5-hydroxytryptamine receptor 1A (Homo sapiens, UniProt P08908); test: Partial agonist activity at human 5HT1A receptor expressed in CHO cells assessed as increase in [35S]GTPgammaS binding; type: functional, cell-based
T1 sequence (P08908 whole entry): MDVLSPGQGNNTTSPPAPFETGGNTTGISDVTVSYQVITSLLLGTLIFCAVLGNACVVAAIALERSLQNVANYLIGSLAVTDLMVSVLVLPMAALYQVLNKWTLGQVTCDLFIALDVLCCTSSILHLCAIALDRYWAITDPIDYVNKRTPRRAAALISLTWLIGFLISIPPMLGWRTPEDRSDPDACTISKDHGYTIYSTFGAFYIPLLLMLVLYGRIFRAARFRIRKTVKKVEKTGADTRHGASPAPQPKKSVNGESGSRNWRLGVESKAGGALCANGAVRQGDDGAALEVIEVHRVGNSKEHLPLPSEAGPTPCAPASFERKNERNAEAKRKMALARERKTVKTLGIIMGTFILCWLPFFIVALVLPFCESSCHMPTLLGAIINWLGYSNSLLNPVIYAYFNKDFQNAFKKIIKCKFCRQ

[11] = molecular target: 5-hydroxytryptamine receptor 1A (Homo sapiens) (UniProt P08908); test: Partial agonist activity at human 5HT1A receptor expressed in CHO cells assessed as increase in [35S]GTPgammaS binding relative to serotonin; type: functional, cell-based
[12] = molecular target: T1, 5-hydroxytryptamine receptor 1A; test: Binding affinity to 5HT1A receptor (unknown origin)
[13] = Binding affinity to benzodiazepine receptor in rat brain; type: tissue-based
[14] = molecular target: Sigma non-opioid intracellular receptor 1 (Homo sapiens, UniProt Q99720); test: Binding affinity to sigma 1 receptor (unknown origin)
[15] = molecular target: 5-hydroxytryptamine receptor 1D (Homo sapiens, UniProt P28221); test: Binding affinity to 5HT1D receptor (unknown origin)
Chain of 5-hydroxytryptamine receptor 1D (P28221 whole entry): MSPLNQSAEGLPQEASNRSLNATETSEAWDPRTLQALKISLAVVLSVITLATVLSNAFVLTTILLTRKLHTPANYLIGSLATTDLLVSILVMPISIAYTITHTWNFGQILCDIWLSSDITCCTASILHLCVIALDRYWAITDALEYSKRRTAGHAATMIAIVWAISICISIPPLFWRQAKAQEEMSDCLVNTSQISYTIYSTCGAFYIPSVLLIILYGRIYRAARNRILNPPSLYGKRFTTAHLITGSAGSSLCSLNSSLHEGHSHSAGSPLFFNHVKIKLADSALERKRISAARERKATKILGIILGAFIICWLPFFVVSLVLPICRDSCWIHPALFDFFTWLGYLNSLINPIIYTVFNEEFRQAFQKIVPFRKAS

D(3) dopamine receptor = D(3) dopamine receptor (Homo sapiens, UniProt P35462); test: Binding affinity to dopamine 3 receptor (unknown origin)
Chain of D(3) dopamine receptor (P35462 whole entry): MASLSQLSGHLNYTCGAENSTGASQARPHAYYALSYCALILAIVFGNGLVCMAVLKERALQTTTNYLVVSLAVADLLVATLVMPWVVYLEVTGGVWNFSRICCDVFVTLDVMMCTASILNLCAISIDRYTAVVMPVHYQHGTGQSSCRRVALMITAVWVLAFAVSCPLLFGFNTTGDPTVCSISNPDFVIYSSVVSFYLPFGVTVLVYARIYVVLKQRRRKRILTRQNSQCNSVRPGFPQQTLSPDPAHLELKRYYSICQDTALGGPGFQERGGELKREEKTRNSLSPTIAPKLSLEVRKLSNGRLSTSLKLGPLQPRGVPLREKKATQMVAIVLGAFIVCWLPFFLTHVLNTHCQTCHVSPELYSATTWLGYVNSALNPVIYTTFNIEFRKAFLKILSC

[16] = molecular target: Alpha-2C adrenergic receptor (Homo sapiens, UniProt P18825); test: Binding affinity to adrenergic alpha2C receptor (unknown origin)
Chain of Alpha-2C adrenergic receptor (P18825 whole entry): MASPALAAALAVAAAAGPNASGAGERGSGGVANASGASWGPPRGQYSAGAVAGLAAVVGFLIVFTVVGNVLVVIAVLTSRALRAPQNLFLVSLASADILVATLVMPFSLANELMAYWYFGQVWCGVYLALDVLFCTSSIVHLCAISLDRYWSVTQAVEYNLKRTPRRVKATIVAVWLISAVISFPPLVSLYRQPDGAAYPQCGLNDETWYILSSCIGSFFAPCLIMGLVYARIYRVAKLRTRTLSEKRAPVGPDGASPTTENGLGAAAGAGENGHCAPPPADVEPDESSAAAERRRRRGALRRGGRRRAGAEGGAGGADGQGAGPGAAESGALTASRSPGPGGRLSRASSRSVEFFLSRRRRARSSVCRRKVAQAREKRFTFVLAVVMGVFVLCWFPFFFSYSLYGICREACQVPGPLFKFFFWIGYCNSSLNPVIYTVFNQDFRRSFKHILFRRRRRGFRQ

[17] = molecular target: Alpha-1D adrenergic receptor (Homo sapiens, UniProt P25100); test: Binding affinity to adrenergic alpha1D receptor (unknown origin)
Chain of Alpha-1D adrenergic receptor (P25100 whole entry): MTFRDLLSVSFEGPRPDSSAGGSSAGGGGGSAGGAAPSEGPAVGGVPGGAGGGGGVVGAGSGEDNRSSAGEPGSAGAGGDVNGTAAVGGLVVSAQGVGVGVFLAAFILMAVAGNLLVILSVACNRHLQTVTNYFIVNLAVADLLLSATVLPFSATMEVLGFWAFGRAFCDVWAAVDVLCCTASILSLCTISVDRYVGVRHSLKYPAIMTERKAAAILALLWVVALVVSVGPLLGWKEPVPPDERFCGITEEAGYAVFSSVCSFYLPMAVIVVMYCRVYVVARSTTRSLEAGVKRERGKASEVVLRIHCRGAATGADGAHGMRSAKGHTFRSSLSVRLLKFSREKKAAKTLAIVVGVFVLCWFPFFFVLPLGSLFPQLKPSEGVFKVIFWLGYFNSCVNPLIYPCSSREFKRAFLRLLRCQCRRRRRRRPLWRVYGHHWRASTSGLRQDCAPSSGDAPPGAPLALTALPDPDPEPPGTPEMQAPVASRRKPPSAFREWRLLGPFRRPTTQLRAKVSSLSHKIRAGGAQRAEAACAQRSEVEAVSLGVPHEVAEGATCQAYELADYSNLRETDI

[18] = molecular target: Alpha-1B adrenergic receptor (Homo sapiens, UniProt P35368); test: Binding affinity to adrenergic alpha1B receptor (unknown origin)

Chain of 5-hydroxytryptamine receptor 7 (P34969 whole entry): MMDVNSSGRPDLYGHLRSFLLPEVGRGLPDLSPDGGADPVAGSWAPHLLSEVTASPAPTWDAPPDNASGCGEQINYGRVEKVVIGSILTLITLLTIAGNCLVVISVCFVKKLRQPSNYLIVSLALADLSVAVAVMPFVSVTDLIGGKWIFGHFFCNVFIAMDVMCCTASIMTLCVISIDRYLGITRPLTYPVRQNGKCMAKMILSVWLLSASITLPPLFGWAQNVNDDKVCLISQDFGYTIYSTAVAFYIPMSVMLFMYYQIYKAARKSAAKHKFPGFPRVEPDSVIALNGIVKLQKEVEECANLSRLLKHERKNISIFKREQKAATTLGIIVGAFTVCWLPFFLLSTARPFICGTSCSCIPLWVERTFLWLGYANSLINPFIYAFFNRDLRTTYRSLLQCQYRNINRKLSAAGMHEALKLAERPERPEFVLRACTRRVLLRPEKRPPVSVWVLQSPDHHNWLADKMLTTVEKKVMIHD

- Ki [1]: 17.2 nM
- Ki (D(2) dopamine receptor): 37.1 nM
- Ki [2]: 56.2 nM
- Ki [3]: 2750 nM
- Ki [4]: 21.4 nM
- Ki [5]: 411 nM
- Ki [6]: 300 nM
- Ki (Histamine H1 receptor): 512 nM
- Ki [7]: > 10000 nM
- Ki (Histamine H2 receptor): 1770 nM
- Ki [8]: 1730 nM
- Ki [9]: 2130 nM
- Ki (D(1A) dopamine receptor): > 10000 nM
- Ki (D(4) dopamine receptor): 71 nM
- EC50 [10]: 0.65 nM
- Emax [11]: 77%
- Ki [12]: 0.1 nM
- Ki [13]: 6240 nM
- Ki [14]: > 10000 nM
- Ki [15]: 235 nM
- Ki (D(3) dopamine receptor): 22 nM
- Ki [16]: 174 nM
- Ki [17]: 62.6 nM
- Ki [18]: 26.8 nM
SMILES: Cn1c(=O)cnn(CCCCN2CCN(c3ccccc3OCCF)CC2)c1=O
